In this data set the test system is rat. To be noted: in vivo.

Consider `NNCCO.O=[N+]([O-])O` [HEHN, 2-hydroxyethyl hydrazinium nitrate], for which the LD50rat is 325 mg/kg.

In the case of `NN` [Hydrazine], the LD50rat is reported as 60 mg/kg.

For the origin of these results see US20140190599A1 (priority 2004, published 2014).
